# Measurements: paper PMC2758719 (Molecular Systems Biology, 2009)
# Target: T1, PfkA (Escherichia coli, UniProt P0A796)
# T1 sequence (P0A796 1-320): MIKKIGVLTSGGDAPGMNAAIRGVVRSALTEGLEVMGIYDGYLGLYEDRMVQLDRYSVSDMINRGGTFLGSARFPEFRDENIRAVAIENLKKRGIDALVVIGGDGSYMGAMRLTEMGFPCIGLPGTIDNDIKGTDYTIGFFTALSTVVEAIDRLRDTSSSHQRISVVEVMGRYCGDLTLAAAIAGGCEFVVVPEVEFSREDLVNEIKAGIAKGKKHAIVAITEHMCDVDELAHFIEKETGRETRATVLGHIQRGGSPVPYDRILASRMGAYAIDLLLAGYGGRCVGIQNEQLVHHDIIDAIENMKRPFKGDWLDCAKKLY
# Test: CE-MS quantification of metabolites after incubation
# Assay type: biochemical
# Details: 5 mM S7P, 2 mM ATP, 2 uM enzyme, 50 mM MOPS potassium buffer, 37 °C, 1 h
structure (smiles),measurement,value
O=P(O)(O)OC[C@@H](O)[C@H]1OC(O)(CO)[C@@H](O)[C@@H]1O (stereo partly shown) [S7P],CE-MS quantification of metabolites after incubation,"When S7P and ATP were incubated with PfkA, S7P and ATP were consumed"
